The subject of this experiment is Tau phosphorylation at Ser396 (pSer396), SH-SY5Y cells. Kind of experiment: Tau phosphorylation at Ser396 (pSer396) in SH-SY5Y cells, ELISA/western blot.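 Further: cell lysates probed for reduced Tau pSer396 via ELISA (colorimetric) or western blot (chemiluminescence), both with one shared pSer396 antibody, EC50 for lowering phosphorylation.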 It is filed as cell-based, human. The note with it: Homo sapiens. (In general: An ELISA detects its analyte on a solid surface through an enzyme-linked reagent.)
The mark [1] stands for this setting: SH-SY5Y cells, overnight (16-18 h), read-out: pSer396 Tau EC50.
The mark [2] stands for this setting: SH-SY5Y, read-out: pSer396 Tau EC50 (μM).

Read-outs that look alike come from different tables or passages of the source.

What is called EC50 is the concentration at which the effect is half-maximal. For the molecule `Cc1nnc(-c2ccc3cnc(NC(=O)[C@H]4CC[C@H](N(C)C)CC4)cc3c2)s1` [Compound 22, trans-4-(Dimethylamino)-N-(6-(5-methyl-1,3,4-thiadiazol-2-yl)isoquinolin-3-yl)cyclohexane-1-carboxamide], under setting [1], the EC50 was determined as 0.126 µM. The same measure, in the same setting: to `Cc1cn2c(n1)CN(C(=O)Nc1cc3cc(-c4nnc(C)s4)ccc3cn1)CC2` [Compound 58, 2-Methyl-N-(6-(5-methyl-1,3,4-thiadiazol-2-yl)isoquinolin-3-yl)-5,6-dihydroimidazo[1,2-a]pyrazine-7(8H)-carboxamide] belongs 0.058 µM.

On to `CN1CC2CCC(C1)N2C(=O)Nc1cc2cc(-c3cnn(C)c3)ccc2cn1` [Compound 61, 3-Methyl-N-(6-(1-methyl-1H-pyrazol-4-yl)isoquinolin-3-yl)-3,8-diazabicyclo[3.2.1]octane-8-carboxamide], for which the EC50 under setting [2] is over 10 µM. `C[C@@H]1CN(C(=O)Nc2cc3cc(-c4cnn(C)c4)ccc3cn2)CCN1C` [Compound 67, (R)-3,4-Dimethyl-N-(6-(1-methyl-1H-pyrazol-4-yl)isoquinolin-3-yl) piperazine-1-carboxamide]: the EC50 under setting [1] was over 10 µM. On the same count and under the same terms, to `COCCN[C@H]1CC[C@H](C(=O)Nc2cc3cc(-c4cnc(C)o4)ccc3cn2)CC1` [Compound 106, trans-4-((2-Methoxyethyl)amino)-N-(6-(2-methyloxazol-5-yl)isoquinolin-3-yl)cyclohexane-1-carboxamide] belongs 0.323 µM. As for `Cc1nnc(-c2ccc3cnc(NC(=O)N4C5CCC4CN(C)C5)cc3c2)s1` [Compound 108, 3-Methyl-N-(6-(5-methyl-1,3,4-thiadiazol-2-yl)isoquinolin-3-yl)-3,8-diazabicyclo[3.2.1]octane-8-carboxamide], the EC50 under setting [2] is over 10 µM. Consider `Cc1nnc(-c2ccc3cnc(NC(=O)N4[C@@H]5CC[C@H]4C[C@H](NCCC(F)(F)F)C5)cc3c2)s1` [Compound 153, (1R,5S)-N-(6-(5-Methyl-1,3,4-thiadiazol-2-yl)isoquinolin-3-yl)-3-exo-((3,3,3-trifluoropropyl)amino)-8-azabicyclo[3.2.1]octane-8-carboxamide], for which the EC50 under setting [2] was over 10 µM. On to `Cc1ncc(-c2ccc3cnc(NC(=O)[C@H]4CC[C@H](NCCF)CC4)cc3c2)o1` [Compound 155, trans-4-((2-fluoroethyl)amino)-N-(6-(2-methyloxazol-5-yl)isoquinolin-3-yl) cyclohexane-1-carboxamide], for which the EC50 under setting [1] is 0.384 µM.

As to `Cc1nnc(-c2ccc3cnc(NC(=O)N4[C@@H]5CC[C@H]4C[C@@H](NCCC(F)(F)F)C5)cc3c2)s1` [Compound 195, (1R,5S)-cis-N-(6-(5-methyl-1,3,4-thiadiazol-2-yl)isoquinolin-3-yl)-3-((3,3,3-trifluoropropyl)amino)-8-azabicyclo[3.2.1]octane-8-carboxamide], the EC50 under setting [2] is over 10 µM.

With `Cc1nnc(-c2cc(F)c3cnc(NC(=O)N(C)C4CCN(C)CC4)cc3c2)s1` [Compound 227, 3-(8-Fluoro-6-(5-methyl-1,3,4-thiadiazol-2-yl)isoquinolin-3-yl)-1-methyl-1-(1-methylpiperidin-4-yl)urea], the EC50 under setting [1] came out at 4.5 µM.

Consider `CN1CCC(N(C)C(=O)Nc2cc3cc(-c4cn(C)nn4)cc(F)c3cn2)CC1` [Compound 228, 3-(8-Fluoro-6-(1-methyl-1H-1,2,3-triazol-4-yl)isoquinolin-3-yl)-1-methyl-1-(1-methylpiperidin-4-yl)urea], for which the EC50 under setting [1] turned out to be 6.4 µM.

Source of the values: patent US10604514B2, “6-(5-membered heteroaryl)isoquinolin-3-yl carboxamides and preparation and use thereof” (Samumed, LLC, priority 2017, dated 2020).
